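Five concentrations, 48 hours, 96-well plates. GI50: concentration for 50% inhibition of growth.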 The source made the active and inactive calls. Cut-off read from the data, not from the text of the source: active = GI50 up to about 1.1 µM and inactive = higher.
Tests used:
Experiment in all cases: DTP human tumour cell line panel, 48 h
[1] = system: HCT-15
[2] = system: SK-MEL-2
[3] = system: U-251
[4] = system: HOP-62
[5] = system: A498
[6] = system: NCI-H23
[7] = system: UACC-257
[8] = system: MOLT-4
[9] = system: IGROV-1
[10] = system: SK-MEL-28
[11] = system: UO-31
[12] = system: CAKI-1
[13] = system: NCI-H226
[14] = system: OVCAR-3
[15] = system: SW-620
[16] = system: PC-3
[17] = system: SN12C
[18] = system: A549
[19] = system: SF-268

Row | Compound | GI50 [1] | GI50 [2] | GI50 [3] | GI50 [4] | GI50 [5] | GI50 [6] | GI50 [7] | GI50 [8] | GI50 [9] | GI50 [10] | GI50 [11] | GI50 [12] | GI50 [13] | GI50 [14] | GI50 [15] | GI50 [16] | GI50 [17] | GI50 [18] | GI50 [19]
1 | c1ccc(NN/N=N/c2ccc(-c3nc4ccccc4[nH]3)cc2)cc1 | 13 µM | 23.9 µM (inactive) | 40.4 µM (inactive) | 41.3 µM (inactive) | 43.7 µM (inactive) | 32.5 µM (inactive) | 28.6 µM (inactive) | 14.5 µM (inactive) | 27.8 µM (inactive) | 35.8 µM (inactive) | 34.5 µM (inactive) | 30.1 µM (inactive) | 36.9 µM (inactive) | 15.6 µM (inactive) | 52.4 µM (inactive) | 26.8 µM (inactive) | 32.2 µM (inactive) | 37 µM (inactive) | 
2 | CCC(=O)Nc1ccc(NS(=O)(=O)c2ccc(Cl)cc2)cc1 | > 100 µM | > 100 µM (inactive) |  | > 100 µM (inactive) | > 100 µM (inactive) | > 100 µM (inactive) | 87.7 µM (inactive) | 34.5 µM (inactive) | > 100 µM (inactive) | > 100 µM (inactive) | > 100 µM (inactive) | 91.4 µM (inactive) | 19.5 µM (inactive) | 43.5 µM (inactive) | > 100 µM (inactive) | > 100 µM (inactive) | > 100 µM (inactive) | > 100 µM (inactive) | > 100 µM (inactive)
3 | C=CCSC1=N/C(=C\c2ccco2)C(=O)N1CC=C | 57.9 µM | > 100 µM (inactive) | > 100 µM (inactive) | > 100 µM (inactive) | 27.2 µM (inactive) | 66.5 µM (inactive) | 77.6 µM (inactive) | 25.9 µM (inactive) | > 100 µM (inactive) | 72.4 µM (inactive) | 53 µM (inactive) | 70.6 µM (inactive) | 34.4 µM (inactive) | 95.3 µM (inactive) | > 100 µM (inactive) | 46.7 µM (inactive) | > 100 µM (inactive) | 79.1 µM (inactive) | > 100 µM (inactive)
4 | COc1cccc(-n2c(N)c(-c3nc4cc(C(F)(F)F)ccc4s3)c3ccc([N+](=O)[O-])cc3c2=O)c1 | > 100 µM | > 100 µM (inactive) | > 100 µM (inactive) | > 100 µM (inactive) | > 100 µM (inactive) | > 100 µM (inactive) | > 100 µM (inactive) | > 100 µM (inactive) |  | > 100 µM (inactive) | > 100 µM (inactive) | > 100 µM (inactive) | > 100 µM (inactive) | > 100 µM (inactive) |  | > 100 µM (inactive) | > 100 µM (inactive) | > 100 µM (inactive) | > 100 µM (inactive)
5 | Cn1c(=O)sc2cc(C(=S)N3CCCCC3)ccc21 | 93.8 µM | > 100 µM (inactive) | 41.8 µM (inactive) | > 100 µM (inactive) | 59.7 µM (inactive) | > 100 µM (inactive) | > 100 µM (inactive) | 27.6 µM (inactive) | 23.2 µM (inactive) | 56.4 µM (inactive) |  | 46.9 µM (inactive) | 18.6 µM (inactive) | 69.2 µM (inactive) | > 100 µM (inactive) | 94.6 µM (inactive) | > 100 µM (inactive) |  | 25.6 µM (inactive)
6 | COc1cc2cc(C(=O)N3C[C@H](CCl)c4c3cc(O)c3ccccc43)[nH]c2c(OC)c1OC | 0.192 µM | 0.203 µM (active) | 0.1 µM (active) | 0.044 µM (active) | 0.248 µM (active) | 0.0453 µM (active) |  | 0.0381 µM (active) | 0.121 µM (active) | 0.267 µM (active) | 0.13 µM (active) | 0.789 µM (active) | 0.12 µM (active) | 0.279 µM (active) | 0.174 µM (active) | 0.267 µM (active) | 0.0133 µM (active) | 0.252 µM (active) | 0.117 µM (active)
7 | O=C1c2cc(Cl)ccc2-n2cnnc2C2CSCN12 (stereo not drawn) | > 100 µM | > 100 µM (inactive) | > 100 µM (inactive) | > 100 µM (inactive) | 55.6 µM (inactive) |  | > 100 µM (inactive) | > 100 µM (inactive) | > 100 µM (inactive) | > 100 µM (inactive) | > 100 µM (inactive) | 4.54 µM (inactive) | > 100 µM (inactive) | > 100 µM (inactive) | > 100 µM (inactive) | > 100 µM (inactive) | > 100 µM (inactive) | > 100 µM (inactive) | > 100 µM (inactive)
8 | CC(=O)OCCn1c(Cc2ccc(C)cc2)nn(C(C)=O)c1=O | > 100 µM | > 100 µM (inactive) | > 100 µM (inactive) |  | > 100 µM (inactive) | > 100 µM (inactive) | > 100 µM (inactive) | > 100 µM (inactive) | > 100 µM (inactive) | > 100 µM (inactive) | > 100 µM (inactive) | > 100 µM (inactive) | > 100 µM (inactive) | > 100 µM (inactive) | > 100 µM (inactive) | > 100 µM (inactive) | > 100 µM (inactive) | > 100 µM (inactive) | > 100 µM (inactive)

Reference: ChEMBL document CHEMBL1201862, “PubChem BioAssay data set” (2004)
